“Also recorded” adds a separate entry of the source.
Tests used:
[1] = system: morphine/heroin seeking behaviour; experiment: Extinction and reinstatement of morphine/heroin seeking, mouse intravenous operant self-administration; assay type: in vivo, C57B16/J mice; settings: L-histidine 1 g/kg or 2 g/kg; mice
Protocol: L-Histidine solution: L-Histidine (Sigma, H-8000) at a 155.15 g/mol concentration in 0.34 M phosphoric acid is prepared as follows. 1.5 g L-histidine are dissolved in 12 ml of 0.34 M phosphoric acid to obtain a 0.8 M solution of L-histidine at approximately pH 6. pH is verified, and 0.1 g of NaCl added to a final concentration of 0.9%. Finally, the L-histidine solution is sterilized by filtration.
Animals: Male C57B16/J mice (Charles River, France) are housed individually in controlled laboratory conditions with the temperature maintained at 21±1° C., humidity at 55±10%, and light reversal cycle (light on at 20.00 h, light off at 08.00 h). Mice are tested during the dark phase of a light reversal cycle. Behavioural tests and animal care are conducted in accordance with the standard ethical guidelines (National Institutes of Health 1995; European Communities Directive 86/609 EEC) and the protocols are approved by the local ethical committee (CEEA-PRBB).
Apparatus: The self-administration experiments are conducted in mouse operant chambers (Model ENV-307A-CT, Medical Associates, Georgia, VT, USA). The experimental chambers are equipped with a house light, ventilator fan, drug infusion pump, liquid swivel with counterbalanced arm, and two manipulanda with cue lights that are located on either side of a food dipper. The manipulanda are holes (1.2 cm diameter).
The chambers are housed in sound- and light-attenuated boxes equipped with fans to provide ventilation and white noise. […]
The catheter tubing is inserted 1.3 cm into the right jugular vein and anchored with suture. […] The patency of intravenous catheters is evaluated periodically (approximately every 6 days). Patency is also evaluated whenever drug self-administration behavior appears to deviate dramatically from that observed previously. […]
L-Histidine dosage: The first L-histidine dose is 1 g/kg. […] Dosage for other H3 histaminergic agonists or H3 histaminergic agonist precursors is determined considering the pharmacokinetic and toxicological characteristics of the compound. […]

[2] = system: relapse into cocaine seeking; experiment: Relapse phase: rehabilitation test, relapse induced by a single dose of cocaine; assay type: in vivo, rat; settings: L-histidine 500 mg/kg i.p. one hour before; cocaine 0.5 mg/kg; vs saline; rats
Excerpt: III. Relapse Phase: The relapse phase is studied by using a rehabilitation test. In this phase, the desire of the rats for the drug is again induced by the administration of a single dose of drug. At this instant, the rat again feels the desire to obtain the drug, and so it again begins to press on the lever to obtain the drug, but the drug is not available to the animal.
The behavior of the rats was also studied during the relapse phase, after the animals had gone through the extinction phase. In the extinction phase, the animals received no reward (dose of cocaine) when they pressed the lever. After a minimum of six extinction sessions, lasting 2 hours each session, carried out on consecutive days, the lever-pressing behavior of the rats diminished at least 20 times in comparison to the start of the extinction sessions.
When the number of times that the rats pressed the lever decreased, the animals were subjected to 4 hour rehabilitation sessions (i.e., relapse sessions). These rehabilitation sessions consisted initially of extinction sessions of 3 hours, followed by the automatic release, by an injection, of a saline solution or different doses of cocaine. During the fourth hour, the behavior of the animals was studied in regard to the number of times that they pressed the lever after the administration of the different doses of cocaine (0 mg/kg, 0.5 mg/kg and 2 mg/kg). The number of times that the lever was pressed increased in proportion to the dose of cocaine administered (cocaine at 0.5 mg/kg or 2 mg/kg administered intravenously, or saline in controls) (FIG. 8). However, this increase in the number of times that the animals pressed the lever was not rewarded with the administration of more cocaine. The number of times that the rats pressed the lever was indicative of the rat's need to find the drug. Even so, the pressing of the lever was not rewarded with more cocaine, which differentiates this stage from that corresponding to self-administration. […]

N[C@@H](Cc1c[nH]cn1)C(=O)O [L-histidine]
cue-induced reinstatement of morphine/heroine seeking [1]: decreases cue-induced reinstatement
number of sessions required to achieve extinction criteria (morphine/heroin) [1]: shortens the number of sessions
responding during the first extinction session (morphine/heroin) [1]: decreases or delays responding
lever pressing after relapse induced by a single dose of cocaine [2]: caused a decrease in the pressing on the lever; also recorded: diminished significantly

— US20110130425A1, “Use of H3 Histaminergic Agonists for the Treatment of Addiction to Drugs of Abuse” (priority 2009, published 2011)
